Tests used:
Format in all cases: functional
SN12C = assay: Cytotoxicity against Homo sapiens (human) SN12C cells after 48 hr by sulforhodamine B assay
OVCAR-8 = assay: Cytotoxicity against Homo sapiens (human) OVCAR8 cells after 48 hr by sulforhodamine B assay; conditions: OVCAR-8, 48 h
MOLT-4 = assay: Cytotoxicity against Homo sapiens (human) MOLT4 cells after 48 hr by sulforhodamine B assay; conditions: MOLT-4, 48 h
K562 = assay: Cytotoxicity against Homo sapiens (human) K562 cells after 48 hr by sulforhodamine B assay; conditions: K562, 48 h
SF-268 = assay: Cytotoxicity against Homo sapiens (human) SF268 cells after 48 hr by sulforhodamine B assay; conditions: SF-268, 48 h
Malme-3M = assay: Cytotoxicity against Homo sapiens (human) MALME-3M cells after 48 hr by sulforhodamine B assay
RXF 393 = assay: Cytotoxicity against Homo sapiens (human) RXF393 cells after 48 hr by sulforhodamine B assay; conditions: RXF 393, 48 h
A549 = assay: Cytotoxicity against Homo sapiens (human) A549 cells after 48 hr by sulforhodamine B assay; conditions: A549, 48 h
M14 = assay: Cytotoxicity against Homo sapiens (human) M14 cells after 48 hr by sulforhodamine B assay; conditions: M14, 48 h
MDA-MB-468 = assay: Cytotoxicity against Homo sapiens (human) MDA-MB-468 cells after 48 hr by sulforhodamine B assay; conditions: MDA-MB-468, 48 h
LOX IMVI = assay: Cytotoxicity against Homo sapiens (human) LOXIMVI cells after 48 hr by sulforhodamine B assay
BT-549 = assay: Cytotoxicity against Homo sapiens (human) BT549 cells after 48 hr by sulforhodamine B assay; conditions: BT-549, 48 h
SF-539 = assay: Cytotoxicity against Homo sapiens (human) SF539 cells after 48 hr by sulforhodamine B assay; conditions: SF-539, 48 h
HCT-116 = assay: Cytotoxicity against Homo sapiens (human) HCT116 cells after 48 hr by sulforhodamine B assay; conditions: HCT-116, 48 h
HOP-92 = assay: Cytotoxicity against Homo sapiens (human) HOP92 cells after 48 hr by sulforhodamine B assay; conditions: HOP-92, 48 h
CCRF-CEM = assay: Cytotoxicity against Homo sapiens (human) CCRF-CEM cells after 48 hr by sulforhodamine B assay
NCI-H226 = assay: Cytotoxicity against Homo sapiens (human) NCI-H226 cells after 48 hr by sulforhodamine B assay; conditions: NCI-H226, 48 h
OVCAR-5 = assay: Cytotoxicity against Homo sapiens (human) OVCAR5 cells after 48 hr by sulforhodamine B assay; conditions: OVCAR-5, 48 h
MDA-MB-231 = assay: Cytotoxicity against Homo sapiens (human) MDA-MB-231 cells after 48 hr by sulforhodamine B assay; conditions: MDA-MB-231, 48 h
TK-10 = assay: Cytotoxicity against Homo sapiens (human) TK10 cells after 48 hr by sulforhodamine B assay; conditions: TK-10, 48 h
OVCAR-4 = assay: Cytotoxicity against Homo sapiens (human) OVCAR4 cells after 48 hr by sulforhodamine B assay; conditions: OVCAR-4, 48 h
SK-OV-3 = assay: Cytotoxicity against Homo sapiens (human) SKOV3 cells after 48 hr by sulforhodamine B assay; conditions: SK-OV-3, 48 h
HCT-15 = assay: Cytotoxicity against Homo sapiens (human) HCT15 cells after 48 hr by sulforhodamine B assay; conditions: HCT-15, 48 h
SK-MEL-28 = assay: Cytotoxicity against Homo sapiens (human) SK-MEL-28 cells after 48 hr by sulforhodamine B assay; conditions: SK-MEL-28, 48 h
HL-60(TB) = assay: Cytotoxicity against Homo sapiens (human) HL-60(TB) cells after 48 hr by sulforhodamine B assay; conditions: HL-60, 48 h
EKVX = assay: Cytotoxicity against Homo sapiens (human) EKVX cells after 48 hr by sulforhodamine B assay
[1] = Cytotoxicity against Homo sapiens (human) NCI-ADR-RES cells after 48 hr by sulforhodamine B assay
UACC-257 = assay: Cytotoxicity against Homo sapiens (human) UACC257 cells after 48 hr by sulforhodamine B assay; conditions: UACC-257, 48 h
SNB-19 = assay: Cytotoxicity against Homo sapiens (human) SNB19 cells after 48 hr by sulforhodamine B assay; conditions: SNB-19, 48 h
OVCAR-3 = assay: Cytotoxicity against Homo sapiens (human) OVCAR3 cells after 48 hr by sulforhodamine B assay; conditions: OVCAR-3, 48 h
HCC 2998 = assay: Cytotoxicity against Homo sapiens (human) HCC2998 cells after 48 hr by sulforhodamine B assay; conditions: HCC 2998, 48 h

Cc1ccc(-c2cs/c(=N\NC(=O)c3ccc(O)cc3)n2-c2c(C)cccc2C)cc1
GI50 (SN12C): 25.7 µM
LC50 (SN12C): > 100 µM
TGI (SN12C; read-out: pTGI (converted)): > 100 µM
GI50 (OVCAR-8): 31.6 µM
LC50 (OVCAR-8): > 100 µM
TGI (OVCAR-8; read-out: pTGI (converted)): > 100 µM
GI50 (MOLT-4): 13.5 µM
LC50 (MOLT-4): > 100 µM
TGI (MOLT-4; read-out: pTGI (converted)): 57.5 µM
GI50 (K562): 11.5 µM
LC50 (K562): > 100 µM
TGI (K562; read-out: pTGI (converted)): 79.4 µM
GI50 (SF-268): 23.4 µM
LC50 (SF-268): > 100 µM
TGI (SF-268; read-out: pTGI (converted)): > 100 µM
GI50 (Malme-3M): 22.4 µM
LC50 (Malme-3M): > 100 µM
TGI (Malme-3M; read-out: pTGI (converted)): 85.1 µM
GI50 (RXF 393): 38 µM
LC50 (RXF 393): > 100 µM
TGI (RXF 393; read-out: pTGI (converted)): > 100 µM
GI50 (A549): 23.4 µM
LC50 (A549): > 100 µM
TGI (A549; read-out: pTGI (converted)): > 100 µM
GI50 (M14): 21.4 µM
LC50 (M14): > 100 µM
TGI (M14; read-out: pTGI (converted)): 72.4 µM
GI50 (MDA-MB-468): 12 µM
LC50 (MDA-MB-468): > 100 µM
TGI (MDA-MB-468; read-out: pTGI (converted)): > 100 µM
GI50 (LOX IMVI): 21.9 µM
LC50 (LOX IMVI): > 100 µM
TGI (LOX IMVI; read-out: pTGI (converted)): > 100 µM
GI50 (BT-549): 21.9 µM
LC50 (BT-549): > 100 µM
TGI (BT-549; read-out: pTGI (converted)): > 100 µM
GI50 (SF-539): 21.9 µM
LC50 (SF-539): > 100 µM
TGI (SF-539; read-out: pTGI (converted)): > 100 µM
GI50 (HCT-116): 22.9 µM
LC50 (HCT-116): > 100 µM
TGI (HCT-116; read-out: pTGI (converted)): > 100 µM
GI50 (HOP-92): 1.32 µM
LC50 (HOP-92): > 100 µM
TGI (HOP-92; read-out: pTGI (converted)): 26.3 µM
GI50 (CCRF-CEM): 33.1 µM
LC50 (CCRF-CEM): > 100 µM
TGI (CCRF-CEM; read-out: pTGI): > 100 µM
GI50 (NCI-H226): 26.3 µM
LC50 (NCI-H226): > 100 µM
TGI (NCI-H226; read-out: pTGI (converted)): > 100 µM
GI50 (OVCAR-5): 28.2 µM
LC50 (OVCAR-5): > 100 µM
TGI (OVCAR-5; read-out: pTGI (converted)): > 100 µM
GI50 (MDA-MB-231): 18.2 µM
LC50 (MDA-MB-231): > 100 µM
TGI (MDA-MB-231; read-out: pTGI (converted)): > 100 µM
GI50 (TK-10): 19.1 µM
LC50 (TK-10): > 100 µM
TGI (TK-10; read-out: pTGI (converted)): 83.2 µM
GI50 (OVCAR-4): 18.6 µM
LC50 (OVCAR-4): > 100 µM
TGI (OVCAR-4; read-out: pTGI (converted)): > 100 µM
GI50 (SK-OV-3): 30.9 µM
LC50 (SK-OV-3): > 100 µM
TGI (SK-OV-3; read-out: pTGI (converted)): > 100 µM
GI50 (HCT-15): 17 µM
LC50 (concentration killing 50% of cells) (HCT-15): > 100 µM
TGI (HCT-15; read-out: pTGI (converted)): > 100 µM
GI50 (SK-MEL-28): 30.9 µM
LC50 (concentration killing 50% of cells) (SK-MEL-28): > 100 µM
TGI (SK-MEL-28; read-out: pTGI (converted)): 83.2 µM
GI50 (HL-60(TB)): 11.5 µM
CC50 (HL-60(TB); read-out: pLC50 (the source's name) (converted)): > 100 µM
TGI (HL-60(TB); read-out: pTGI (converted)): 64.6 µM
GI50 (EKVX): 25.1 µM
LC50 (EKVX): > 100 µM
TGI (EKVX; read-out: pTGI (converted)): > 100 µM
GI50 [1]: 21.4 µM
LC50 [1]: > 100 µM
TGI ([1]; read-out: pTGI (converted)): 69.2 µM
GI50 (UACC-257): 42.7 µM
LC50 (UACC-257): > 100 µM
TGI (UACC-257; read-out: pTGI (converted)): > 100 µM
GI50 (SNB-19): 20.9 µM
LC50 (SNB-19): > 100 µM
TGI (SNB-19; read-out: pTGI (converted)): > 100 µM
GI50 (OVCAR-3): 17.8 µM
LC50 (OVCAR-3): > 100 µM
TGI (OVCAR-3; read-out: pTGI (converted)): 47.9 µM
GI50 (HCC 2998): 15.5 µM
LC50 (HCC 2998): > 100 µM
TGI (HCC 2998; read-out: pTGI (converted)): 43.7 µM
